From US4210667A, “Pharmaceutical preparations containing coumarin carboxylic acid derivatives” (Pfizer Inc., priority 1979, dated 1980) come the findings set out here.

Usually inhibition stands for the drop in the measured response relative to a control, in per cent. The term % Inhibition denotes the relative decrease from the control value, in per cent. A low value points to little suppression.

One experiment concerns the target T1, aldose reductase (Bos taurus, UniProt P16116).
T1 construct: partially purified aldose reductase enzyme obtained from calf lens; from tissue; host or cells: calf lens
As to the kind of experiment: Aldose reductase inhibitory activity (partially purified enzyme from calf lens). The format is biochemical. Conditions: 10^-4 M, relative to untreated controls, Examples 2, 4, 5: average of two tests, read-out: Degree of Inhibition at 10^-4 Molar. The text has this: (§1) The ability of the active ingredients of the preparations, the derivatives,to control chronic diabetic complications and enzymatic reduction of aldoses may be determined by a number of standard biological or pharmacological tests. These include (1) measuring the ability to inhibit the enzyme activity or isolated aldose reductase; (2) measuring the ability to reduce or inhibit sorbitol accumulation in the sciatic nerve of acutely streptozotocinized (i.e., diabetic) rats; (3) measuring the ability to reverse already-elevated sorbitol levels in the sciatic nerve and lens of chronic streptozocin-induced diabetic rats; (4) measuring the ability to prevent or inhibit galactitol formation in the lens of acutely galactosemic rats; and (5) measuring the ability to delay cataract formation and reduce the severity of lens opacities in chronic galactosemic rats.
The derivatives prepared in Examples 1-7 were tested for their ability to reduce or inhibit aldose reductase enzyme activity, following the procedure described in U.S. Pat. No. 3,821,383 and based on the procedure of Hayman et. al., Journal of Biological Chemistry, 240, 877 (1965). The substrate employed was partially purified aldose reductase enzyme obtained from calf lens. The drugs were tested at a level of 10^-4 M to determine the degree of inhibition of enzyme activity relative to untreated controls.

Experiment [1] has as its system sorbitol accumulation in the sciatic nerve of streptozotocinized (i.e., diabetic) rats. As to the kind of experiment: Inhibition of sorbitol accumulation in the sciatic nerve of streptozotocinized (diabetic) rats. The format is in vivo, rat. Conditions: 25 mg./kg. t.i.d. oral, at 4, 8 and 24 hours after streptozotocin; measured at 27 hours; vs untreated control; Examples 1, 5: average of two tests.
Excerpt: as §1
Some of the Examples of derivatives prepared above were also tested for their ability to reduce or inhibit sorbitol accumulation in the sciatic nerve of streptozotocinized (i.e., diabetic) rats essentially by the procedure described in U.S. Pat. No. 3,821,383. In the present study, the amount of sorbitol accumulation in the sciatic nerves was measured 27 hours after induction of diabetes. The compounds were administered orally at the dose level indicated at 4, 8 and 24 hours following the administration of streptozotocin. The results obtained in this manner are presented in terms of percent inhibition (%) afforded by the test compound compared to the control where no compound was administered (i.e., the untreated animal where sorbitol levels normally rise from approximately […] tissue to as high as […] tissue in the 27-hour test period).

Each structure is given as a SMILES string.

Consider `Cc1cc2oc(=O)c(C)c(CC(=O)O)c2cc1C` [Example 1, 3,6,7-trimethylcoumarin-4-acetic acid], for which the inhibition at 100 µM on aldose reductase was determined as 81%. The “% Inhibition at Dose (sorbitol accumulation in sciatic nerve)” value (“% Inhibition at Dose” below) in experiment [1] is 21%.
Consider `Cc1cc(C)c2c(CC(=O)O)cc(=O)oc2c1` [Example 3, 5,7-dimethylcoumarin-4-acetic acid], for which, on aldose reductase, the inhibition at 100 µM stood at 91%. For the same molecule, the “% Inhibition at Dose” value in experiment [1] is listed as 11%.
For the molecule `Cc1cc2oc(=O)cc(CC(=O)O)c2cc1C` [Example 5, 6,7-dimethylcoumarin-4-acetic acid], on aldose reductase, the inhibition at 100 µM is 94%. For the same molecule, the “% Inhibition at Dose” value in experiment [1] came to 4%.
In the case of `Cc1cc(Cl)cc2c(C(=O)O)cc(=O)oc12` [Example 6, 6-chloro-8-methylcoumarin-4-carboxylic acid], at aldose reductase, the inhibition at 100 µM was 65%.
With `Cc1ccc2c(CC(=O)O)cc(=O)oc2c1` [Example 4, 7-methylcoumarin-4-acetic acid], the inhibition at 100 µM on aldose reductase was found to be 94%.
Take `O=C(O)Cc1cc(=O)oc2c1cc(Cl)c1ccccc12` [Example 2, 6-chloro-1:2-alpha-naphthapyrone-4-acetic acid]: the inhibition at 100 µM on aldose reductase is 91%. Also, in experiment [1], the “% Inhibition at Dose” value was found to be 9%.
